Here are results for one molecule from ChEMBL document CHEMBL4385590, “A Survey of the Structures of US FDA Approved Combination Drugs” (J Med Chem, 2019).

The structures appear in SMILES notation.

The data set can be described thus: Half-life in human serum administered once daily.

`Nc1nc(=O)n([C@@H]2CS[C@H](CO)O2)cc1F` [EMTRICITABINE] gave a half-life of 10 h.

The term half-life denotes the time needed for the level to fall by half in the phase considered. Lower therefore signals fast loss.
